The supplement of paper PMC12592484

What was measured:
Assay in all cases: drug sensitivity score (DSS2, normalised partial AUC of dose-response, 72 h CellTiter-Glo viability) (DSS (dimensionless)); higher = more sensitive (stronger growth inhibition / cytotoxicity); extreme values may be limits of the assay
22Rv1 = test system: 22Rv1
In short: (§1)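 Low-passage primary prostate cancer-associated fibroblasts, PF179T, WPMY-1, LNCaP and 22Rv1 cells were seeded into 384-well plates carrying pre-dispensed compounds at five doses covering a 10,000-fold range. After 72 h, viability was read by CellTiter-Glo 2.0 luminescence. Responses were scaled to vehicle and positive-control wells. The drug sensitivity score (DSS2) is a partial area under the fitted logistic dose–response curve divided by the log of its upper asymptote, computed in BREEZE; higher means more sensitive.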

CAF#1 = test system: CAF#1 (primary prostate cancer-associated fibroblasts of myCAF-like type)
In short: as §1

CAF#2 = test system: CAF#2 (primary prostate cancer-associated fibroblasts of iCAF-like type)
In short: as §1

CAF#3 = test system: CAF#3 (primary prostate cancer-associated fibroblasts of myCAF-like type)
In short: as §1

CAF#4 = test system: CAF#4 (primary prostate cancer-associated fibroblasts of iCAF-like type)
In short: as §1

CAF#5 = test system: CAF#5 (primary prostate cancer-associated fibroblasts of myCAF-like type)
In short: as §1

CAF#6 = test system: CAF#6 (primary prostate cancer-associated fibroblasts of iCAF-like type)
In short: as §1

CAF#7 = test system: CAF#7 (primary prostate cancer-associated fibroblasts of myCAF-like type)
In short: as §1

LNCAP = test system: LNCAP
In short: as §1

PF179T = test system: PF179T
In short: as §1

WPMY-1 = test system: WPMY-1
In short: as §1

SMILES	drug sensitivity score (22Rv1)	drug sensitivity score (CAF#1)	drug sensitivity score (CAF#2)	drug sensitivity score (CAF#3)	drug sensitivity score (CAF#4)	drug sensitivity score (CAF#5)	drug sensitivity score (CAF#6)	drug sensitivity score (CAF#7)	drug sensitivity score (LNCAP)	drug sensitivity score (PF179T)	drug sensitivity score (WPMY-1)
CC(C)(C)Cn1c(N)nc2ccc(-c3[nH]c(C(C)(C)C)nc3-c3ccc(F)cc3)nc21 [Ralimetinib] (tested concentration range 1-10000 nM)	3.8	0.8	1.9	2.1	0.1	0	0.1	0	11.2	0	2.8
O=C(Nc1cc(Cl)cc2c1[nH]c1cnccc12)c1cccnc1 [PS-1145] (tested concentration range 2.5-25000 nM)	0	3.1	4.1	1.3	0	2.5	0.1	0	0	3.5	0.1
CN[C@@H](C)C(=O)N[C@H]1CN(C(=O)CC(C)C)CC[C@H]2CC[C@@H](C(=O)NC(c3ccccc3)c3ccccc3)N2C1=O [AT-406] (tested concentration range 1-10000 nM)	0	0	0	0	0	0	1.6	0	0	0	0
CO[C@@]12[C@H](COC(N)=O)C3=C(C(=O)C(C)=C(N)C3=O)N1C[C@@H]1N[C@@H]12 [Mitomycin C] (tested concentration range 1-10000 nM)	0	0	0.1	0	0	0	0	0	0.7	0	0
C[C@]1(c2nc3c(C(N)=O)cccc3[nH]2)CCCN1 [Veliparib] (tested concentration range 1-10000 nM)	1.4	1.2	1.5	2.6	0	0	1.7	1.2	0.7	0.5	0.8
CC(=O)N(O)CCCCCNC(=O)CCC(=O)N(O)CCCCCNC(=O)CCC(=O)N(O)CCCCCN [Deferoxamine] (tested concentration range 1-10000 nM)	4.9	0.9	4.8	0.2	3.2	2.4	1.4	1.6	3.2	5.7	5.3
Nc1ncnc2c1c(COc1cccc(Cl)c1)nn2C1CCOCC1 (tested concentration range 1-10000 nM)	0	2.5	2.1	2.8	0	1.8	0.6	1	2.3	0	0
Cc1ccc(=O)n(-c2ccccc2)c1 [Pirfenidone] (tested concentration range 1-10000 nM)	0	0	0	0	0	0	0	0	0	0	0
COc1cc2ncnc(Nc3cccc(Cl)c3F)c2cc1OC(=O)N1CCN(C)C[C@H]1C [AZD3759] (tested concentration range 0.1-1000 nM)	0	0	0	0.4	0	0	0	0	0	0	0
C=CC(=O)Nc1cccc(Nc2nc(Nc3ccc(N4CCN(C(C)=O)CC4)cc3OC)ncc2C(F)(F)F)c1 [Rociletinib] (tested concentration range 0.5-5000 nM)	6	6.6	8.3	2.1	6.8	5.2	2.6	4	2.6	5	7
N.N.[Cl][Pt][Cl] [Cisplatin] (tested concentration range 10-100000 nM)	15	11.8	18.1	5.7	5	14.6	4.3	4.8	5.6	11.4	16
Cc1noc2c1-c1ccccc1C(c1ccc(Cl)cc1)=N[C@H]2CC(N)=O [CPI-0610] (tested concentration range 1-10000 nM)	9.2	7	6.5	8.4	1.4	4.1	4.5	1.8	13	4.1	7.9
CC(C)(C)c1cc(NC(=O)Nc2ccc(-c3cn4c(n3)sc3cc(OCCN5CCOCC5)ccc34)cc2)no1 [Quizartinib] (tested concentration range 0.1-1000 nM)	0	0.3	2.3	0	0	1.5	0	0	0	0	1.4
C[C@@H](Oc1ccc2[nH]nc(/C=C/c3cnn(CCO)c3)c2c1)c1c(Cl)cncc1Cl (tested concentration range 0.1-1000 nM)	2.9	9.7	7.2	9.9	5.7	6.7	10.9	18.7	2.5	8.9	8
Nc1nc(F)nc2c1ncn2[C@@H]1O[C@H](CO)[C@@H](O)[C@@H]1O [Fludarabine] (tested concentration range 1-10000 nM)	0	1.5	0.7	0	0.3	2.2	0.1	2.1	5.5	4.3	0.7
Cc1nc(C(=O)NCC(=O)O)c(O)c2ccc(Oc3ccccc3)cc12 [Roxadustat] (tested concentration range 1-10000 nM)	0	0	0	0	0	0.2	0	0	0	0	0
Cc1cc(Nc2ncnc3ccc(NC4=NC(C)(C)CO4)cc23)ccc1Oc1ccn2ncnc2c1 [Tucatinib] (tested concentration range 0.2-2500 nM)	0	0.4	0	0	0	0	0.1	0	0.6	0.1	0
CC[C@]12C=CCN3CC[C@@]4(c5cc([C@@]6(C(=O)OC)C[C@@H]7C[C@@H](C(C)(F)F)CN(Cc8c6[nH]c6ccccc86)C7)c(OC)cc5N(C)[C@H]4[C@@](O)(C(=O)OC)[C@@H]1OC(C)=O)[C@@H]32 [Vinflunine] (tested concentration range 0.1-1000 nM)	4.8	0.9	0.9	2	0.1	1.1	2.4	4.4	4.3	3.8	5.5
CC(C)c1c(C(=O)Nc2ccccc2)c(-c2ccccc2)c(-c2ccc(F)cc2)n1CC[C@@H](O)C[C@@H](O)CC(=O)O [Atorvastatin] (tested concentration range 1-10000 nM)	3.3	4.7	8.4	6.1	3.5	5.4	5.2	5.9	1.1	3	2.7
Cc1sc2c(c1C)C(c1ccc(Cl)cc1)=N[C@@H](CC(=O)NCCCCNC(=O)COc1cccc3c1C(=O)N(C1CCC(=O)NC1=O)C3=O)c1nnc(C)n1-2 (stereo partly specified) [dBET1] (tested concentration range 1-10000 nM)	12	4.5	2.7	12	6.3	8.2	9.1	14.2	9.1	0.2	6
CC[C@H](Nc1ncnc2[nH]cnc12)c1nc2cccc(F)c2c(=O)n1-c1ccccc1 [Idelalisib] (tested concentration range 1-10000 nM)	2	3.4	4.5	4.6	5.6	3.6	3.2	3.9	10.2	5.4	1.3
C[C@@H]1CCN(C(=O)CC#N)C[C@@H]1N(C)c1ncnc2[nH]ccc12 [Tofacitinib] (tested concentration range 0.5-5000 nM)	0	1.3	1	1.6	0	0.4	0	0.1	0	0	0
COc1cc2nccc(Oc3ccc(NC(=O)C4(C(=O)Nc5ccc(F)cc5)CC4)cc3)c2cc1OC [Cabozantinib] (tested concentration range 0.1-1000 nM)	0.3	4.6	7.9	5.4	3.9	7.4	3.7	5.6	7.1	4.1	3.8
C[C@]12C=CC(=O)C=C1CC[C@@H]1[C@@H]2[C@@H](O)C[C@@]2(C)[C@H]1CC[C@]2(O)C(=O)CO [Prednisolone] (tested concentration range 1-10000 nM)	0	0	0	0	0	0	0	0	0	0	0
CCOCc1nc2c(N)nc3ccccc3c2n1CC(C)(C)O [Resiquimod] (tested concentration range 1-10000 nM)	0	0	0.4	0	0	0	0	0	0	0	0
CCC1(c2ccc(N)cc2)CCC(=O)NC1=O (stereo unspecified) [Aminoglutethimide] (tested concentration range 1-10000 nM)	0	0	0	0.2	0	0	0	0	0.3	0	0
